Laboratory results taken from patent US10596296B2, “Heparan sulphates” (Agency for Science, Technology and Research, priority 2014, dated 2020).

Key:
[1] = test system: chondrogenic differentiation of hMSCs; assay: qPCR of chondrogenic micromass pellets (Example 2); format: cell-based, human; conditions: for SOX9 expression / COMP expression: day 3
Experimental: Total RNA was isolated from chondrogenic micromass pellets using TRIZOL reagent (Life Technologies, CA, USA) according to the manufacturer's protocol. Reverse transcription was carried out on 1 μg RNA using the SuperScript® VILO™ cDNA Synthesis Kit (Life Technologies) following the manufacturer's instructions, with the incubation at 42° C. being carried out for 2 h instead of 1 h. Each qPCR contained 40 ng cDNA, 1 μL TaqMan® primer-probe mix per gene, and 10 μL Taqman® Fast Universal PCR Master Mix (Life Technologies) in a final volume of 20 μL. Thermal cycling conditions were 95° C. for 20 s, followed by 45 cycles of 95° C. for 1 s and 60° C. for 20 s. Each qPCR was run in duplicate and gene expression was normalised to HPRT1 expression to obtain the ΔCt value. The average value of biological triplicates was taken. Chondrogenic micromass pellets cultured in media without GAG or TGF-β1 were used as controls (ΔΔCt). Relative expression levels for each primer set were expressed as fold changes by the 2-ΔΔCt method [Livak, K. J. and T. D. Schmittgen, Analysis of Relative Gene Expression Data Using Real-Time Quantitative PCR and the 2-ΔΔCT Method. Methods, 2001. 25(4): p. 402-408]. The following TaqMan® primer-probe assays (Life technologies) were used:
(§1) In order to assess the effects of HS16+ve on the chondrogenic differentiation of hMSCs in vitro, it was first necessary to establish the effects of TGF-β1 alone. Chondrogenic differentiation was carried out using a modified micromass culture system. [Zhang, L., et al., Chondrogenic differentiation of human mesenchymal stem cells: a comparison between micromass and pellet culture systems. Biotechnol Lett, 2010. 32(9): p. 1339-1346.]. Briefly, passage 4 hMSCs were harvested and resuspended in chemically defined chondrogenic media (PT-3003, Lonza, MD, USA) at 2×10^7 cells/mL. Droplets of 12.5 μL were then seeded into the middle of each well in a 24-well plate and left to adhere at 37° C. for 2 h, after which, 500 μL of chondrogenic media supplemented with either 1 or 10 ng/mL of TGF-β1 (100-210, PeproTech) alone or with either 5 or 10 μg/mL of heparin (Sigma-Aldrich), porcine mucosal HS (HSPM) (Celsus laboratories), HS16+ve or HS16-ve was added to each well. The cell droplets coalesced into spherical masses after 24 h. Media was changed every 3 days and the micromasses harvested on days 3, 7, 14 and 21.
Next, hMSCs were differentiated for 21 days in the presence of 1 ng/mL TGF-β1 alone (1 TGF-β1) or in combination with 10 μg/mL of GAG (heparin, HSPM, HS16+ve or HS16−ve) or with 10 ng/mL TGF-β1 (10 TGF-β1) as a positive control.

[2] = test system: TGF-β1 signaling (pSMAD2, pSMAD3) in hMSCs; assay: Western blotting of pSMAD2/pSMAD3 in hMSCs treated with TGF-β1 and GAG; format: cell-based, human
Experimental: Primary hMSCs (Lonza) were isolated from the bone marrow mononuclear cells of a young healthy adult human donor by plastic adherence and characterized as previously described (30,31). The adherent cells were maintained in a basal media consisting of DMEM-low glucose (1000 mg/l, DMEM-LG) supplemented with 10% fetal calf serum, 100 U/ml penicillin, 100 μg/ml streptomycin and 2 mM L-glutamine, and cultured under standard conditions at 37° C. and 5% CO2 in a humidified atmosphere. Media replacement was every three days. Cells were detached with 0.125% trypsin/Versene (pH 7.0) upon reaching 75-80% confluence, and re-plated at a density of 3,000 cells/cm^2 under the same culture conditions. All experiments were carried out with cells at passage 5.
Human MSCs were cultured in 6-well plates in basal media for 24 h at a density of 10,000 cells/cm^2. TGF-β1 treatments were then prepared at either 1 ng/ml or 5 ng/ml alone or in the presence of either 10 μg/ml or 40 μg/ml of full length heparin, or 1 ng/ml of TGF-β1 with 10 μg/ml size-fractionated or selectively desulfated heparin, HS^PM, HS16+ or HS16−, and incubated at room temperature for 10 min before being added to the cells. Latent TGF-β1 (LTGF-β1) treatments were similarly prepared at 3.3 ng/ml alone or with 10 μg/ml of the various GAGs described above. For inhibitor studies, the cells were pre-treated for 30 min with 10 μM SB431542 (Sigma-Aldrich) or DMSO before treatment with TGF-β1. […] Samples were then immunoblotted with antibodies against SMAD2/3 (#3102, Cell Signaling), phosphorylated SMAD2 (pSMAD2, #3108, Cell Signaling), phosphorylated SMAD3 (pSMAD3, #9520, Cell Signaling) and actin (MAB1501R, Millipore). Densitometry was carried out using Quantity One software (version 4.6.6, Bio-Rad).

[3] = biological target: LTGF-β1 (Homo sapiens, UniProt P01137); conditions: reference (56); cited from earlier work
[4] = test system: chondrogenic differentiation of hMSCs; assay: Alcian blue staining of chondrogenic micromass pellets; format: cell-based, human; conditions: 21 days; 1 ng/mL TGF-β1 with 10 μg/mL GAG
Experimental: as §1

[5] = 10 μg/mL heparin with 10 ng/mL TGF-β1
[6] = 6 h post-treatment, heparin and TGF-β1

LTGF-β1, sequence (P01137 279-390 limits assumed): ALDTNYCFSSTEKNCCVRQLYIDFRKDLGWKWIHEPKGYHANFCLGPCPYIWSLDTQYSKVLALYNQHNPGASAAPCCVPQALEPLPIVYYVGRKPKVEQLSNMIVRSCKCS
LTGF-β1, sequence (P01137 30-278 limits assumed): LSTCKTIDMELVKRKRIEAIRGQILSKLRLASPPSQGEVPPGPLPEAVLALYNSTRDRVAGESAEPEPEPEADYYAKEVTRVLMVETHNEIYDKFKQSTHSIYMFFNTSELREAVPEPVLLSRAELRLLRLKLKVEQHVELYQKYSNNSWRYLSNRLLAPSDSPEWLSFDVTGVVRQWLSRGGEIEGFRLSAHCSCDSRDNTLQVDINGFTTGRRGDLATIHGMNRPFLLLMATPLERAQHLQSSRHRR

heparin
COMP expression increase relative to 1 ng/mL TGF-β1 alone ([1]; 21 days, 1 ng/mL TGF-β1 with 10 μg/mL GAG): ~2.5 fold
SOX9 expression ([1]; 5 μg/mL heparin, regardless of the amount of TGF-β1): did not significantly alter
SOX9 expression ([1]; 10 μg/mL heparin on its own): did not affect SOX9 expression
SOX9 expression ([1]; 10 μg/mL heparin with 1 ng/mL TGF-β1): increase the expression of SOX9
COMP expression [1, 5]: reduced COMP expression levels
SOX9 expression [1, 5]: unable to bring about any change in SOX9 expression
COMP expression ([1]; 5 or 10 μg/mL heparin on their own): slightly reduce
COMP expression ([1]; either dose of heparin with 10 ng/mL TGF-β1): unable to elicit a further increase in COMP expression
COMP expression ([1]; heparin with 1 ng/mL TGF-β1): increase COMP expression levels in a dose dependent manner
Aggrecan expression ([1]; day 21, 1 ng/mL TGF-β1 with 10 μg/mL GAG): similar
pSMAD2 and pSMAD3 levels ([2]; 1 h post treatment, with TGF-β1): saturated
pSMAD2 level relative to equivalent dose of TGF-β1 without heparin [2, 6]: ~1.6 fold
pSMAD3 level relative to equivalent dose of TGF-β1 without heparin [2, 6]: ~1.35 fold
pSMAD levels relative to TGF-β1 alone ([2]; 24 h, heparin and TGF-β1): continued to be greater
pSMAD2 and pSMAD3 signal ([2]; TGF-β1 1 ng/mL with 40 μg/mL heparin, 6 h): unable to elicit the same effect
pSMAD2 and pSMAD3 levels ([2]; TGF-β1 1 ng/ml pre-incubated with 10 μg/ml GAG, 6 h): maintained a stronger pSMAD2 and pSMAD3 signal
pSMAD signal ([2]; TGF-β1 5 ng/mL with 10 or 40 μg/mL heparin, 6 h): neither dose of heparin was able enhance the pSMAD signal beyond that obtained from the growth factor alone
levels of pSMAD2 and pSMAD3 ([2]; heparin alone, no TGF-β1): No discernible levels
effect on activation of LTGF-β1 [3]: inhibit the activation of LTGF-β1
GAG deposition by Alcian blue staining relative to 1 ng/mL TGF-β1 alone [4]: slight increase in GAG deposition
